# Test system: CT26 mouse colon cancer cells
# Test: In vivo vaccination/challenge mouse model with payload-treated CT26 cells
# Conditions: CT26 cells treated 24 hours with tubulysin (1 uM) or PBD (10 nM), implanted in left flank of BALB/c mice; challenge with untreated CT26 cells in opposite flank 1 week later; assessed on day 65
# Description: CT26 cells were treated with either […] AZD9185 (tubulysin) or […] SG3199 (PBD) for 24 hours so that the cells were committed to cell death (as assessed by lack of growth in re-plating experiments) but still >95% viable. Five-hundred thousand of these treated cells were inoculated into the left flank of BALB/c mice to test for their ability to vaccinate for subsequent right flank challenge. Controls included cells treated with 75 Gy radiation or taken through 3 freeze-thaw cycles (necrotic). Challenge on the right flank utilized 3×10^6 untreated CT26 cells 7 days later.
# In order to test this, tubulysin and PBD were used in a vaccination/challenge mouse model. CT26 mouse colon cancer cells were treated with either tubulysin (1 uM) or PBD (10 nM) for a period of 24 hours (FIG. 1A). At this point in time, the cells were still viable but committed subsequent cell death.
# These dying but not yet dead cells were implanted subcutaneously into the left flank of BALB/c mice to test if they could vaccinate against subsequent challenge with a tumor forming dose of untreated CT26 cells in the opposite flank 1 week later. Irradiated cells were included as a positive control and necrotic cells which were taken through a freeze thaw cycle were included as a negative control.
row,SMILES,mice protected from tumor formation
1,COc1cc2c(cc1OCCCCCOc1cc3c(cc1OC)C(=O)N1C=C(C)C[C@H]1C=N3)N=C[C@@H]1CC(C)=CN1C2=O [PBD],70%
2,CC[C@H](C)[C@H](NC(=O)[C@H]1CCCCN1C)C(=O)N(COC(=O)CC(C)C)[C@H](C[C@@H](OC(C)=O)c1nc(C(=O)N[C@@H](Cc2ccc(C)cc2)C[C@H](C)C(=O)O)cs1)C(C)C [Tubulysin],40%

# Source: patent US20200023072A1, “ANTIBODY-DRUG CONJUGATES WITH IMMUNE-MEDIATED THERAPY AGENTS” (MEDIMMUNE LIMITED, priority 2016, published 2020)
